Test results: ChEMBL document CHEMBL1201862, “PubChem BioAssay data set” (2004)
Activity calls are given as the source filed them.

Legend:
[1] = potency of ADAM10 substrate cleavage blockers – biochemical, QFRET, dose response (AID 743254);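 also: ADAM10 enzyme with the DM2 quenched FRET peptide as substrate; EDANS fluorescence gain as the protease cuts the substrate; inhibitor potency against ADAM10 proteolytic activity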
[2] = target: Disintegrin and metalloproteinase domain-containing protein 17 (Homo sapiens, UniProt P78536); assay: inhibition of ADAM17 substrate cleavage – biochemical, quenched FRET substrate, counter-screen for ADAM10 exosite inhibitor project, dose response (AID 743253)
[3] = target: NAD-dependent protein deacylase sirtuin-5, mitochondrial (Homo sapiens, UniProt Q9NXA8); assay: sirtuin-5 deacylation blockers, concentration series – biochemical, fluorescence imaging, cherry-pick, set 5, dose response (AID 720591);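 also: desuccinylation of succinyl peptide AMC substrate read as fluorescence after trypsin release; potency of inhibitors that lower fluorescence and may act on trypsin instead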
[4] = blockers of HIV-1 envelope-mediated cell-cell fusion – cherry-pick, dose response (AID 652057); type: functional, cell-based
[5] = blockers of HIV-1 ZM109 envelope-driven cell-cell fusion – HeLa effector, CEM target cells, luciferase, cherry-pick, dose response (AID 652058); type: functional, cell-based;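 also: luciferase signal from HIV-1 Env mediated cell-cell fusion of effector and target cells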
[6] = off-target signal loss in HeLa-CEM21 co-culture – HeLa F-luc CTL cells, cherry-picked, counter-screen for HIV-1 Env fusion inhibitor project, dose response (AID 652040); type: functional, cell-based;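 also: potency for signal decrease marking cytotoxic or nonspecific inhibition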
[7] = target: Major prion protein (Homo sapiens, UniProt P04156); type: functional, cell-based
[8] = cells
[9] = target: T1, Sentrin-specific protease 8 (Homo sapiens, UniProt Q96LD8); type: functional
T1 sequence (Q96LD8 whole entry): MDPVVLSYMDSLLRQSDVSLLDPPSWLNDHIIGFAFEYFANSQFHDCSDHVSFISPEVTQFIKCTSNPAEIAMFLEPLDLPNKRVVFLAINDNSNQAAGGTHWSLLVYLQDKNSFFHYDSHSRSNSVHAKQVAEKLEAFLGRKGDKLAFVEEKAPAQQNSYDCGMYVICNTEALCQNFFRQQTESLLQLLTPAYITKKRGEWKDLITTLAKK

[10] = target: T1, Sentrin-specific protease 8; type: functional; remark: listed apart in the source
[11] = target: Eukaryotic translation initiation factor 4E (Mus musculus, UniProt P63073); assay: blockers of eIF4G binding by eIF4E – biochemical, TR-FRET, dose response (AID 855); type: functional;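 also: potency for disrupting eIF4E binding to eIF4GI seen as loss of FRET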
[12] = target: T2, Carboxy-terminal domain RNA polymerase II polypeptide A small phosphatase 1 (Homo sapiens, UniProt Q9GZU7); assay: CTDSP1 inhibitors, concentration-response, biochemical, absorbance readout, ultra-high-throughput screen actives (AID 540297); type: functional
T2 sequence (Q9GZU7 whole entry): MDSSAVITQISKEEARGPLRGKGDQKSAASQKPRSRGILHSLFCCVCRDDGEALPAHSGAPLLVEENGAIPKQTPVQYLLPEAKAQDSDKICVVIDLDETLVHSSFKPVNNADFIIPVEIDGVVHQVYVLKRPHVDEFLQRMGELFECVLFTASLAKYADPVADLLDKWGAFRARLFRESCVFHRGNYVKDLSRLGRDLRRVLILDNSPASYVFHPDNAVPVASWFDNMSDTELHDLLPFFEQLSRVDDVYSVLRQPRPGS

[13] = target: T3, Long-chain-fatty-acid--AMP ligase FadD28 (Mycobacterium tuberculosis, UniProt P9WQ59); assay: Fluorescence polarization aasay to screen for inhibitors that compete for the binding of FadD28 to a bisubstrate Measured in Biochemical System Using Plate Reader - 2147-01_Inhibitor_Dose_CherryPick_Activity.; type: functional, Mycobacterium tuberculosis H37Rv
T3 sequence (P9WQ59 whole entry): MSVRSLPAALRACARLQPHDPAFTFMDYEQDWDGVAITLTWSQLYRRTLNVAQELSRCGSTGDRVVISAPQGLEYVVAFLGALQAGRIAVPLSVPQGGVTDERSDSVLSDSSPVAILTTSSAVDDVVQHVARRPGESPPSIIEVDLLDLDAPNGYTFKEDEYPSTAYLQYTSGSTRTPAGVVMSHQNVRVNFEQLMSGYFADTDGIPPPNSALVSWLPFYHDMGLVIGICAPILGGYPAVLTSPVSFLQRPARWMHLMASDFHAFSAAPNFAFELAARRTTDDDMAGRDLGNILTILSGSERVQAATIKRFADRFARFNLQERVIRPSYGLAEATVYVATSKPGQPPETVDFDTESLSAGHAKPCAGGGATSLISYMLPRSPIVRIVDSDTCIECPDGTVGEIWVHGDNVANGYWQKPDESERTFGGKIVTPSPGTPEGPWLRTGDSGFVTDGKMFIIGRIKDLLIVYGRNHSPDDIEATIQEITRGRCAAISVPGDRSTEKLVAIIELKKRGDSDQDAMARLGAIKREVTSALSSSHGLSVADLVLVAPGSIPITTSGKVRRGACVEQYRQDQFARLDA

[14] = target: T4, Histone-lysine N-methyltransferase NSD2 (Homo sapiens, UniProt O96028); type: biochemical
T4 sequence (O96028 whole entry): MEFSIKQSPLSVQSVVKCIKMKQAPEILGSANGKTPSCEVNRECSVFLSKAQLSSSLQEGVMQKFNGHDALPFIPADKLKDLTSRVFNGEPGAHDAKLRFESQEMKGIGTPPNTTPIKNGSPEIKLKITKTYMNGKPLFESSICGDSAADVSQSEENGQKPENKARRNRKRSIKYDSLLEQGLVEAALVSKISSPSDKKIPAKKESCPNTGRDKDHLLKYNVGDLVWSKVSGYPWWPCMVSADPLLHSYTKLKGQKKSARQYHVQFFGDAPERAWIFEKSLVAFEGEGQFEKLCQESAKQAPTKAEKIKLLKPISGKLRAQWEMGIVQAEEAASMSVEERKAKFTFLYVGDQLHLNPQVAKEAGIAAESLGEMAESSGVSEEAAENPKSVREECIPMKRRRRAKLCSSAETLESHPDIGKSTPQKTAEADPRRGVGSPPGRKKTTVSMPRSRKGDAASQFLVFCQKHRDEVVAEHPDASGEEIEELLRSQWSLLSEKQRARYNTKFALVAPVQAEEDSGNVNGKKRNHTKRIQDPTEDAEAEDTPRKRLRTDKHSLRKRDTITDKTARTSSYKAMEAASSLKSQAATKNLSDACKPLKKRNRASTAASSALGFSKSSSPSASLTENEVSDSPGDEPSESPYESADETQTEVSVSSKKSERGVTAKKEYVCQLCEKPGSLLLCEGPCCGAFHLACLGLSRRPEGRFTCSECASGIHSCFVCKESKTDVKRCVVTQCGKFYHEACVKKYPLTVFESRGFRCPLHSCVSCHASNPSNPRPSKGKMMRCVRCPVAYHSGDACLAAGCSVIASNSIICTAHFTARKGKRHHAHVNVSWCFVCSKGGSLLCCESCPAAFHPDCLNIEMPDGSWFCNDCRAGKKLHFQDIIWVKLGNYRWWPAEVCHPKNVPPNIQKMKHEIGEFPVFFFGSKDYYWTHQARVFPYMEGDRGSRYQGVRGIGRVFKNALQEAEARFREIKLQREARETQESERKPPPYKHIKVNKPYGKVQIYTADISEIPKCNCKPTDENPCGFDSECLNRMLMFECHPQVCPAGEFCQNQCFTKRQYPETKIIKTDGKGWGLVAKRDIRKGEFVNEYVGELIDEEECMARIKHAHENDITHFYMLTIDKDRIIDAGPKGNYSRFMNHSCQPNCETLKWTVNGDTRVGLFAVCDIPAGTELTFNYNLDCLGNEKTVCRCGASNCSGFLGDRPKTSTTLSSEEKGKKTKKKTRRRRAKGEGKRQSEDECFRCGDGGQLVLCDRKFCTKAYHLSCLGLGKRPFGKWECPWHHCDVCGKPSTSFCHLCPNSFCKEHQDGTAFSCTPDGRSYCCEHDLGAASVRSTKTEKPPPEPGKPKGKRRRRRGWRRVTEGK

[15] = target: Kallikrein-7 (Homo sapiens, UniProt P49862); assay: Fluorescence Intensity-based biochemical primary high throughput dose response assay to identify activators of kallikrein-7 (K7) zymogen.
[16] = HIV-1 AD8 envelope cell-cell fusion blockers – cherry-pick, dose response (AID 652062); type: functional, cell-based;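 also: luciferase signal from cell-cell fusion driven by HIV-1 clade B AD8 Env; potency is for inhibitors of fusion seen as a drop in luminescence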
[17] = target: Induced myeloid leukemia cell differentiation protein Mcl-1 (Homo sapiens, UniProt Q07820); type: functional
[18] = A549 cell cytotoxicity, dose response, cytotoxicity control, plate reader, cherry-pick, antagonist series (AID 743412); type: functional, cell-based
[19] = toxicity toward HepG2 liver cells – cell-based, plate reader, cherry-pick, antagonist series, cytotoxicity control, dose response (AID 743416); type: functional
[20] = blockers of bursicon-stimulated LGR2 cAMP reporter – cell-based, HEK293, CRE-luciferase reporter, cherry pick, set 2, dose response (AID 743343); type: functional;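 also: transfected cells were stimulated with diluted bursicon conditioned medium after compound addition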
[21] = viability loss in HEK293 cells – cell-based, plate reader, cherry-picked samples, cytotoxicity control, dose response (AID 743446); type: functional
[22] = Trypanosoma cruzi growth suppression in host cells – NIH3T3 host cells, beta-gal luminescence, confirmation (AID 2044); type: functional, cell-based;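 also: intracellular parasites grown in NIH/3T3 mouse fibroblasts as host cells; luminescent beta-galactosidase reporter signal from transgenic T. cruzi replicating inside host cells; inhibitors lower the luminescence signal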
[23] = NIH3T3 cell viability loss – ATP luminescence, mouse fibroblasts, counter-screen, dose response (AID 2010); type: functional, cell-based;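 also: cells exposed to compound for about 90 hours before reading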
[24] = cells; type: functional
[25] = viability loss in CEM21 cells – cell-based, CellTiter-Glo luminescence, cherry-picked, cytotoxicity control for viral fusion inhibitor project, dose response (AID 652042); type: functional;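 also: potency for signal decrease meaning cytotoxicity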
[26] = system: Vero; assay: cells; type: functional; settings: Chlorocebus sabaeus
[27] = blockade of melanocortin 4 receptor signaling – cell-based, plate reader, cherry pick, counter-screen for LGR2 antagonist project, dose response (AID 743444); type: functional;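 also: transfected HEK 293 cells stimulated with alpha-MSH peptide; potency of inhibitors of the alpha-MSH evoked signal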

SMILES: COc1ccc(OC(F)(F)F)cc1CC1(C)C(=O)Nc2ccc(-c3ccsc3)cc21 (stereo not given)
- IC50 [1]: 8.48 µM (active)
- IC50 [2]: > 69.5 µM (inactive)

SMILES: CCCCCCCCN1C(=O)[C@H](CC(=O)NCC2CCCCC2)C[C@@]2(C(=O)OCC)CCC=C12
- AC50 [3]: 27.7 µM (active)

SMILES: CCN(CC)C(=O)c1ncn2c1C(=O)NC[C@@H]2C
- AC50 [4]: 8.99 µM (active)
- AC50 [5]: 9.08 µM (active)
- AC50 [6]: 24.7 µM (active)

SMILES: Cc1c(C(=O)c2ccccc2C(=O)O)sc2ccccc12
- IC50 [7]: 8.21 µM (active)
- IC50 [8]: > 138 µM (inactive)

SMILES: CC(C)N1C(=O)CCC1C(=O)N1CCCc2ccccc21 (stereo not given)
- IC50 [9]: > 100 µM (inactive)
- IC50 [10]: 9.12 µM (active)

SMILES: Cc1ccc(NC(=O)CN2C(=O)N/C(=C/c3cc(C)n(-c4cccc(C(=O)O)c4)c3C)C2=O)cc1
- IC50 [11]: 50 µM (inactive)
- IC50 [12]: 7.94 µM (active)
- AC50 [13]: 27.5 µM (active)
- AC50 [14]: > 20 µM (inactive)

SMILES: Cc1ccc(C(=O)OCC(=O)Nc2ccc3c(c2)OCO3)cc1S(=O)(=O)N1CCOCC1
- AC50 [13]: > 100 µM (inactive)

SMILES: Cc1oc2c(C)c3oc(=O)c(CCC(=O)NCCCCCC(=O)O)c(C)c3cc2c1C
- EC50 [15]: > 69.5 µM (inactive)

SMILES: COc1cc2oc(=O)cc(-c3ccc(-c4ccc(CO)cc4)cc3)c2c(OC)c1OC
- AC50 [4]: 12.1 µM (active)
- AC50 [5]: 5.08 µM (active)
- AC50 [6]: 8.61 µM (active)
- AC50 [16]: 13.2 µM (active)

SMILES: CC(=O)c1cc2c(cc1NS(=O)(=O)c1ccccc1Br)OCO2
- EC50 [15]: 66.2 µM (inactive)

SMILES: COc1cc(/C=N/Nc2nc(C)nc3c2cnn3-c2ccccc2)ccc1O
- IC50 [17]: 9.67 µM (active)
- AC50 [18]: 8.71 µM (active)
- AC50 [19]: 27.1 µM (active)
- AC50 [20]: 23.1 µM (active)
- AC50 [21]: > 52 µM (inactive)

SMILES: CCCCC[C@H](C)N1C[C@@H](COCc2ccccc2)Oc2cc(N3CCC[C@H]3CO)ccc2S1(=O)=O
- AC50 [3]: > 30 µM (inactive)

SMILES: O=C(O)CCNc1nc(C(F)(F)F)nc2ccccc12
- AC50 [3]: 1.64 µM (active)

SMILES: CN(C(=O)CSc1cc(C(=O)c2nccn2C)c2ccccc2n1)c1ccccc1
- IC50 [7]: 11.4 µM (inactive)
- IC50 [8]: > 138 µM (inactive)

SMILES: CCOC(=O)c1c(C)n(C)c2ccc(OCC(O)CNCCc3ccccc3)cc12 (stereo not given)
- EC50 [22]: 0.601 µM (active)
- EC50 [23]: 4.89 µM (active)
- AC50 [18]: 37.7 µM (active)
- AC50 [19]: 21.9 µM (active)
- AC50 [21]: > 52 µM (inactive)

SMILES: Cc1nc(SCCC(=O)O)c2ccccc2n1
- IC50 [7]: 0.915 µM (active)
- IC50 [8]: > 138 µM (inactive)

SMILES: COC(=O)C(C)Oc1ccc2cc(-c3ccccc3)c(=O)oc2c1 (stereo not given)
- IC50 [24]: 6.14 µM (active)
- EC50 [15]: 5.16 µM (active)

SMILES: C[C@H]1CN([C@@H](C)CO)S(=O)(=O)c2ccc(-c3ccc(F)cc3)cc2O[C@H]1CN(C)Cc1cccc(F)c1
- AC50 [4]: 12.4 µM (active)
- AC50 [25]: 19.9 µM (active)

SMILES: CCCCN(CCCNC(=O)c1ccc2c(c1)NC(=O)CN2C)c1ccccc1
- CC50 [26]: > 25 µM (active)
- AC50 [20]: 21.6 µM (active)
- AC50 [27]: 23.9 µM (active)
- AC50 [21]: 16.7 µM (active)
